Data on 6 compounds can be found in patent US20230165766A1, “DISPERSANT OR DISPERSION MEDIA COMPOSITION COMPRISING 2,3-BUTANEDIOL, AND COSMETIC COMPOSITION COMPRISING SAME” (GS CALTEX CORPORATION, priority 2020, published 2023).

Structures are written as SMILES.

Data set [1] is described as follows: Ceramide dispersion force in solubilized essence formulation and O/W emulsion formulation. Format: physicochemical. On the procedure:
Further, an experiment for evaluating the dispersion force of ceramide was performed by applying the same to each of the solubilized essence formulation and the O/W emulsion formulation.

Data set [2] is described as follows: Dispersibility of vitamin C in P/O emulsion under heating condition. Format: physicochemical. Conditions: vitamin C-containing formulations. On the procedure:
Vitamin C is a water-soluble substance that dissolves well in water. […] Therefore, in this experiment, vitamin C was applied to a polyol in oil (P/O) formulation as an anhydrous formulation, and an ivory-colored cream was prepared to evaluate dispersibility. It is more important to produce a stable cosmetic without discoloration, odor change, or phase separation rather than the problem of precipitation regarding vitamin C. Thus, factors for evaluating the dispersing power were set as soft spreadability, application uniformity, and emulsion stability. 1 part by weight of […] JC 500B, 1.5 parts by weight of ABIL EM 90, and 2 parts by weight of KF 6017 were added to 100 parts by weight of ELASTOMER BASE to produce an oil-based mixed solution 1. […] Further. 15 parts by weight of ascorbic acid ultra-fine powder was used to prepare a water-based mixed solution 2. Further, 45 parts by weight of KSG-16 was used to prepare an oil-based mixed solution 2. The oil-based mixed solution 1 was heated to 80 to 90° C. while stirring the same. […] The dispersion stability was evaluated as follows: unstable: phase separation between the oil phase and the aqueous phase, discoloration and/or odor change, normal: the oil phase being slightly separated, and stable: no oil phase separation.

The nature of data set [3]: Allantoin dispersion force evaluation (precipitation amount in water). It counts as physicochemical. An excerpt:
Precipitation of allantoin occurs well when the temperature is low. When allantoin is precipitated during cosmetic production, it is problematic. In accordance with the present disclosure, using the property of allantoin whose precipitation occurs well, the dispersion force was identified in a short time by measuring an amount of precipitation of allantoin based on each of the polyols under a severe refrigeration condition when the temperature is low, and then the dispersion forces of the various polyols were compared with each other. The stability was evaluated at each of a room temperature, a refrigeration temperature, and thermostat (45° C.). […] In this experiment, the dispersion force of allantoin, that is, the precipitation amount, and a precipitation rate thereof, based on each of the polyols was evaluated. […] The amount of precipitation of allantoin was measured as follows. […] After the 24 hours or 7 days, a supernatant was removed therefrom, and the resulting mixture was dried in a thermostat to entirely remove any remaining supernatant, leaving only the precipitated portion. Then, the precipitated portion was dried for 12 hours, and then a weight thereof was measured. Thus, the amount of precipitation was derived as a difference value between the measured weight and the previously measured weight of the empty container.

Data set [4] is described as follows: Dispersion force of allantoin in solubilized formulation. Format: physicochemical. The procedure: 0.02 parts by weight of EDTA-2Na, 2 parts by weight of 1,2-hexanediol, and 0.5 parts by weight of allantoin were added to 100 parts by weight of purified water to prepare a water-based mixed solution. On the other hand, 0.1 parts by weight of fragrance, 0.3 parts by weight of PEG-60 hydrogenated castor oil, 5 parts by weight of 95% ethanol and 10 parts by weight of the polyol of Present Example 2 were mixed with each other to prepare a solubilized mixed solution. That is, the water-based mixed solution is composed of ultrapure water, EDTA-2Na, 1,2-hexanediol and allantoin, while the solubilized mixed solution is composed of fragrance, PEG-60 hydrogenated castor oil, ethanol and polyol.
The water-based mixed solution was stirred at room temperature for 3 minutes. On the other hand, the solubilized mixed solution was stirred was heating the same to 45 to 50° C. to make the same transparent. Then, the solubilized mixed solution was slowly added to the water-based mixed solution to prepare a mixture which in turn was stirred at room temperature for 2 minutes.
The amount of precipitation of allantoin was measured as follows. […] Then, the precipitated portion was dried for 12 hours, and then a weight thereof was measured. Thus, the amount of precipitation was derived as a difference value between the measured weight and the previously measured weight of the empty container.

Data set [5] can be described thus: Ceramide dispersion force evaluation (ceramide in polyol). Format: physicochemical. On the procedure:
(§1) Ceramide is an oil-soluble substance that is not soluble in water, precipitates easily during cosmetic production. It is difficult to stabilize ceramide due to gelling during the cosmetic production. In accordance with the present disclosure, the dispersion forces based on types of polyols were compared with each other using the characteristics of ceramide that precipitation thereof occurs well. The stability was evaluated at each of the room temperature, the refrigeration temperature, and the thermostat (45° C.).

The nature of data set [6]: Ceramide dispersion force in solubilized skin formulation. Format: physicochemical. The procedure:
as §1
0.02 parts by weight of EDTA-2Na and 2 parts by weight of 1,2-hexanediol were added to 100 parts by weight of purified water to prepare a water-based mixed solution 1. On the other hand, 0.1 parts by weight of fragrance, 0.3 parts by weight of PEG-60 hydrogenated castor oil, and 5 parts by weight of DPG (Dipropylene Glycol) were mixed with each other to produce a solubilized mixed solution. Further, a water-based mixed solution 2 was prepared by mixing 10 parts by weight of polyol of Present Example 6 and 1 part by weight of ceramide with each other.
The water-based mixed solution 1 was stirred at room temperature for 2 minutes. On the other hand, the solubilized mixed solution was heated to 45 to 50° C. while stirring the same to make the same transparent, and then was slowly added to the water-based mixed solution under a stirring operation. […]

The conditions of data set [7]: cited from earlier work.

On to `C[C@H](O)[C@@H](C)O` [(2R,3S)-2,3-butanediol], for which, in data set [1], the “dispersion force of ceramide” value was “the dispersion force was excellent” and the gelling phenomenon result is recorded as “no gelling phenomenon was observed”. For the same compound, in data set [2], the “difference between the properties under the heating/non-heating conditions” value is reported as “no significant difference”.

In the case of `C[C@H](O)[C@@H](C)O` [Present Example 1, (2R,3S)-2,3butanediol], the “dispersion force for allantoin” value in data set [3] is “excellent”.

On to `C[C@H](O)[C@@H](C)O` [Present Example 2, (2R,3S)-2,3butanediol], for which the “allantoin dispersion force in the solubilized formulation” value in data set [4] was “excellent”.

In the case of `C[C@H](O)[C@@H](C)O` [Present Example 5, (2R,3S)-2,3butanediol], the “ceramide dispersion force” value in data set [5] (1 part ceramide in 100 parts polyol) is given as “ceramide was stably dispersed”. The “state after 4 weeks in thermostat” value in data set [5] (thermostat (45° C.), 4 weeks) is on record as “excellent dispersing power”.

In the case of `C[C@H](O)[C@@H](C)O` [Present Example 6, (2R,3S)-2,3butanediol], the “ceramide dispersion force” value in data set [6] is “ceramide was stably dispersed”.

Take `NC(=O)NC1NC(=O)NC1=O` (stereo not drawn) [allantoin]: the solubility of allantoin in data set [7] was 0.5 g/100 mL.
